Assays:
[1] = Examination of stability of pemafibrate (open dish storage, related substances by HPLC); type: physicochemical
Description: 250 mg of pemafibrate was placed in a dish, and stored in an uncapped state (open state) in a dark place at 40° C. and 75% relative humidity (RH) for 3 months.
The sum of related substance-derived peak areas was evaluated in terms of a ratio (%) to the pemafibrate-derived peak area using an HPLC apparatus, and the ratio was defined as the “Total amount (%) of related substances”.

[2] = Hygroscopic property evaluation of pemafibrate crystal (Karl Fischer moisture content); type: physicochemical
Description: A pemafibrate crystal was produced by recrystallizing pemafibrate from an ethyl acetate/heptane mixture in accordance with the method for producing a pemafibrate crystal as described in Non-Patent Document 1.
250 mg of the pemafibrate crystal was placed in a dish, and stored in an uncapped state (open state) in a dark place at 25° C. and 83% relative humidity (RH) for 3 months. The hygroscopic property was evaluated by measuring the moisture contents before and after the storage. The measurement of the moisture content was performed by a coulometric titration method in accordance with The Japanese Pharmacopoeia, 17th Edition, Moisture Content Measurement Method (Karl Fischer Method).

Compound	Total amount (%) of related substances ([1]; After storage at 40° C. and 75% RH for 3 months, open state in dish, dark place)	Total amount (%) of related substances ([1]; Before storage, 250 mg in dish)	Stability against moisture content ([1]; storage at 75% RH for 3 months)	Moisture content (%) ([2]; After storage at 25° C. and 83% RH for 3 months, open state in dish, dark place)	Moisture content (%) ([2]; Before storage, 250 mg in dish)	Hygroscopic property ([2]; storage at 83% RH for 3 months)
CC[C@@H](Oc1cccc(CN(CCCOc2ccc(OC)cc2)c2nc3ccccc3o2)c1)C(=O)O [Pemafibrate, (2R)-2-[3-([1,3-Benzoxazol-2-yl[3-(4-methoxyphenoxy)propyl]amino]methyl)phenoxy]butanoic acid]	<0.05%	<0.05%	stable	–	–	–
CC[C@@H](Oc1cccc(CN(CCCOc2ccc(OC)cc2)c2nc3ccccc3o2)c1)C(=O)O [Pemafibrate crystal, (2R)-2-[3-([1,3-Benzoxazol-2-yl[3-(4-methoxyphenoxy)propyl]amino]methyl)phenoxy]butanoic acid]	–	–	–	<0.1%	<0.1%	not hygroscopic
